target: T1, BRD4 (BD1) (Homo sapiens, UniProt O60885); test: Binding assay BRD4/acetylated peptide H4 (TR-FRET protein-protein interaction assay)
T1 construct: with relatively long constructs also being possible, preferably amino acids 44-168; made in house; host or cells: E. coli
Source text: Binding Assay BRD4/Acetylated Peptide H4 (“PRO”)
To assess the BRD4 binding of the substances described in the present application, their ability to inhibit the interaction between BRD4 (BD1) and acetylated histone H4 in a dose-dependent manner was quantified (Filippakopoulos et al., Cell, 2012, 149: 214-231).
For this purpose, use was made of a time-resolved fluorescence resonance energy transfer (TR-FRET) assay which measured binding between N-terminally His6-tagged BRD4 (BD1) (amino acids 67-152, with relatively long constructs also being possible, preferably amino acids 44-168) and a synthetic acetylated histone H4 (Ac—H4) peptide having the sequence GRGK(Ac)GGK(Ac)GLGK(Ac)GGAK(Ac)RHGSGSK-biotin. The recombinant BRD4 protein-produced according to Filippakopoulos et al., Cell, 2012, 149: 214-231—was expressed in E. coli and purified by (Ni-NTA) affinity and (Sephadex G-75) size exclusion chromatography. The Ac—H4 peptide is commercially available, for example from Biosyntan (Berlin, Germany). In a typical assay, 11 different concentrations of each substance (0.1 nM, 0.33 nM, 1.1 nM, 3.8 nM, 13 nM, 44 nM, 0.15 μM, 0.51 μM, 1.7 μM, 5.9 μM and 20 μM) were measured in duplicate on the same microtitre plate. To this end, 100-fold concentrated solutions in DMSO were prepared by serial dilution (1:3.4) of a 2 mM stock solution in a clear 384-well microtitre platte (Greiner Bio-One, Frickenhausen, Germany) 50 nl of these were transferred into a black test plate (Greiner Bio-One, Frickenhausen, Germany). The test was started by addition of 2 μl of a 2.5-fold concentrated BRD4 solution (final concentration usually 10 nM in the […] of the reaction volume) in aqueous assay buffer [50 mM HEPES pH 7.5. 50 mM sodium chloride (NaCl), 0.25 mM CHAPS and 0.05% serum albumin (BSA)] to the substances in the test plate. This was followed by a 10-minute incubation step at 22° C. to pre-equilibrate putative complexes between BRD4 and the substances.
The mixture was then incubated in the dark for one hour at 22° C. and then for at least 3 hours and at most overnight at 4° C. Formation of BRD4/Ac—H4 complexes was determined by measuring the resonance energy transfer from the streptavidin-Eu cryptate to the anti-6His-XL665 antibody in the reaction. To this end, the fluorescence emission was measured at 620 nm and 665 nm after excitation at 330-350 nm in a TR-FRET measuring device, for example a Rubystar or Pherastar (both from BMG Lab Technologies, Offenburg, Germany) or a Viewlux (Perkin-Elmer). The ratio of the emission at 665 nm and at […] was used as an indicator for the amount of BRD4/Ac—H4 complexes formed.
The data obtained (ratios) were normalized, with 0% inhibition corresponding to the mean of the measured values of a set of controls (usually 32 data points) comprising all reagents. Here, 50 nl of DMSO (100%) were used instead of test substances. An inhibition of 100% corresponded to the mean of the measured values of a set of controls (usually 32 data points) comprising all reagents except for BRD4. The IC50 was determined by regression analysis based on a 4-parameter equation (minimum, maximum, IC50, Hill; Y=Max+(Min−Max)/(1+(X/IC 50)^Hill)).

Compared with `CNC(=O)N1N=C(c2ccc(-c3ccccc3C(=O)O)cc2)c2cc(OC)c(OC)cc2CC1C` (racemic) [Example 6, (±)-4′-{7,8-dimethoxy-4-methyl-3-[(methylamino)carbonyl]-4,5-dihydro-3H-2,3-benzodiazepin-1-yl}biphenyl-2-carboxylic acid], `CCC1Cc2cc(OC)c(OC)cc2C(c2ccc(-c3ccc(F)cc3)cc2)=NN1C(=O)NC` (racemic) [Example 221, (±)-4-ethyl-1-(4′-fluorobiphenyl-4-yl)-7,8-dimethoxy-N-methyl-4,5-dihydro-3H-2,3-benzodiazepine-3-carboxamide] is 2.2-fold higher in IC50: 910 nM for the first, 1980 nM for the second.

Going from `CNC(=O)N1N=C(c2ccc(N3CCC(CCO)CC3)cc2)c2cc(OC)c(OC)cc2CC1C` (racemic) [Example 183, (±)-1-{4-[4-(2-hydroxyethyl)piperidin-1-yl]phenyl}-7,8-dimcthoxy-N,4-dimethyl-4,5-dihydro-3H-2,3-benzodiazepine-3-carboxamide] to `CCC1Cc2cc(OC)c(OC)cc2C(c2ccc(N3CCC(O)CC3)cc2)=NN1C(=O)NC` (racemic) [Example 207, (±)-4-ethyl-1-[4-(4-hydroxypiperidin-1-yl)phenyl]-7,8-dimethoxy-N-methyl-4,5-dihydro-3H-2,3-benzodiazepine-3-carboxamide], the IC50 rises from 40 nM to 1220 nM (30-fold).

`CNC(=O)N1N=C(c2ccc(N3CCC(=O)CC3)cc2)c2cc(OC)c(OC)cc2CC1C` (racemic) [Example 196, (±)-7,8-dimethoxy-N,4-dimethyl-1-[4-(4-oxopiperidin-1-yl)phenyl]-4,5-dihydro-3H-2,3-benzodiazepine-3-carboxamide] and `CNC(=O)N1N=C(c2ccc(N3CCN(CC(F)(F)F)CC3)cc2)c2cc(OC)c(OC)cc2CC1C` (racemic) [Example 197, (±)-7,8-dimethoxy-N,4-dimethyl-1-{4-[4-(2,2,2-trifluoroethyl)piperazin-1-yl]phenyl}-4,5-dihydro-3H-2,3-benzodiazepine-3-carboxamide] are within 1.5-fold of each other in IC50: 90 nM for the first, 80 nM for the second.

`CNC(=O)N1N=C(c2ccc(N3CCN(C)CC3)cc2)c2cc(O)c(O)cc2CC1C` (racemic) [Example 199, (±)-7,8-Dihydroxy-N,4-dimethyl-1-[4-(4-methylpiperazin-1-yl)phenyl]-4,5-dihydro-3H-2,3-benzodiazepine-3-carboxamide] and `CCC1Cc2cc(OC)c(OC)cc2C(c2ccc(N3CCN(C)CC3)cc2)=NN1C(=O)NC` (racemic) [Example 201, (±)-4-ethyl-7,8-dimethoxy-N-methyl-1-[4-(4-methylpiperazin-1-yl)phenyl]-4,5-dihydro-3H-2,3-benzodiazepine-3-carboxamide] are within 1.5-fold of each other in IC50: 1020 nM for the first, 1370 nM for the second.

`CCC1Cc2cc(OC)c(OC)cc2C(c2ccc(N3CCNCC3)cc2)=NN1C(=O)NC` (racemic) [Example 202, (±)-4-ethyl-7,8-dimethoxy-N-methyl-1-[4-(piperazin-1-yl)phenyl]-4,5-dihydro-3H-2,3-benzodiazepine-3-carboxamide] and `CCC1Cc2cc(OC)c(OC)cc2C(c2ccc(N3CCOCC3)cc2)=NN1C(=O)NC` (racemic) [Example 208, (±)-4-ethyl-7,8-dimethoxy-N-methyl-1-[4-(morpholin-4-yl)phenyl]-4,5-dihydro-3H-2,3-benzodiazepine-3-carboxamide] are within 1.5-fold of each other in IC50: 1230 nM for the first, 1100 nM for the second.

`CCC1Cc2cc(OC)c(OC)cc2C(c2ccc(N3CC(F)C3)cc2)=NN1C(=O)NC` (racemic) [Example 204, (±)-4-ethyl-1-[4-(3-fluoroazetidin-1-yl)phenyl]-7,8-dimethoxy-N-methyl-4,5-dihydro-3H-2,3-benzodiazepine-3-carboxamide] and `CCC1Cc2cc(OC)c(OC)cc2C(c2ccc(N3CCCC3=O)cc2)=NN1C(=O)NC` (racemic) [Example 225, (±)-4-ethyl-7,8-dimethoxy-N-methyl-1-[4-(2-oxopyrrolidin-1-yl)phenyl]-4,5-dihydro-3H-2,3-benzodiazepine-3-carboxamide] are within 1.5-fold of each other in IC50: 1220 nM for the first, 1720 nM for the second.

`CCC1Cc2cc(OC)c(OC)cc2C(c2ccc(N3CCN(C(C)=O)CC3)cc2)=NN1C(=O)NC` (racemic) [Example 205, (±)-1-[4-(4-acetylpiperazin-1-yl)phenyl]-4-ethyl-7,8-dimethoxy-N-methyl-4,5-dihydro-3H-2,3-benzodiazepine-3-carboxamide] and `CCC1Cc2cc(OC)c(OC)cc2C(c2ccc(N3CCS(=O)(=O)CC3)cc2)=NN1C(=O)NC` (racemic) [Example 206, (±)-1-[4-(1,1-dioxidothiomorpholin-4-yl)phenyl]-4-ethyl-7,8-dimethoxy-N-methyl-4,5-dihydro-3H-2,3-benzodiazepine-3-carboxamide] are within 1.5-fold of each other in IC50: 1080 nM for the first, 930 nM for the second.

Going from `CNC(=O)N1N=C(c2ccc(N3CCNCC3)cc2)c2cc(Cl)c(OC(F)(F)F)cc2CC1C` (racemic) [Example 211, (±)-8-chloro-N,4-dimethyl-1-[4-(piperazin-1-yl)phenyl]-7-(trifluoromethoxy)-4,5-dihydro-3H-2,3-benzodiazepine-3-carboxamide] to `CNC(=O)N1N=C(c2ccc(N3CCN(S(C)(=O)=O)CC3)cc2)c2cc(Cl)c(OC(F)(F)F)cc2CC1C` (racemic) [Example 214, (±)-8-chloro-N,4-dimethyl-1-{4-[4-(methylsulphonyl)piperazin-1-yl]phenyl}-7-(trifluoromethoxy)-4,5-dihydro-3H-2,3-benzodiazepine-3-carboxamide], the IC50 rises from 300 nM to 1230 nM (4.1-fold).

Compared with `CNC(=O)N1N=C(c2ccc(N3CCN(C(C)=O)CC3)cc2)c2ccc(OC(F)(F)F)cc2CC1C` (racemic) [Example 217, (±)-1-[4-(4-acetylpiperazin-1-yl)phenyl]-N,4-dimethyl-7-(trifluoromethoxy)-4,5-dihydro-3H-2,3-benzodiazepine-3-carboxamide], `CNC(=O)N1N=C(c2ccc(Cl)cc2)c2ccc(N3CCCCC3=O)cc2CC1C` (racemic) [Example 231, (±)-1-(4-chlorophenyl)-N,4-dimethyl-7-(2-oxopiperidin-1-yl)-4,5-dihydro-3H-2,3-benzodiazepine-3-carboxamide] is 1.9-fold higher in IC50: 1730 nM for the first, 3370 nM for the second. The first is the more potent here.

Going from `CCC1Cc2cc(OC)c(OC)cc2C(c2ccc(-c3c(C)noc3C)cc2)=NN1C(=O)NC` (racemic) [Example 223, (±)-1-[4-(3,5-dimethyl-1,2-oxazol-4-yl)phenyl]-4-ethyl-7,8-dimethoxy-N-methyl-4,5-dihydro-3H-2,3-benzodiazepine-3-carboxamide] to `CNC(=O)N1N=C(c2ccc(-c3c(C)nn(C)c3C)cc2)c2cc(OC)c(OC)cc2CC1C(C)C` (racemic) [Example 224, (±)-4-isopropyl-7,8-dimethoxy-N-methyl-1-[4-(1,3,5-trimethyl-1H-pyrazol-4-yl)phenyl]-4,5-dihydro-3H-2,3-benzodiazepine-3-carboxamide], the IC50 rises from 320 nM to 7690 nM (24-fold).

First: CCC1Cc2cc(OC)c(OC)cc2C(c2ccc(N3CCOCC3=O)cc2)=NN1C(=O)NC (racemic) [Example 226, (±)-4-ethyl-7,8-dimethoxy-N-methyl-1-[4-(3-oxomorpholin-4-yl)phenyl]-4,5-dihydro-3H-2,3-benzodiazepine-3-carboxamide]
Second: CCC1Cc2cc(OC)c(OC)cc2C(c2ccc(N3CCOC3=O)cc2)=NN1C(=O)NC (racemic) [Example 228, (±)-4-ethyl-7,8-dimethoxy-N-methyl-1-[4-(2-oxo-1,3-oxazolidin-3-yl)phenyl]-4,5-dihydro-3H-2,3-benzodiazepine-3-carboxamide]
The IC50 of the first is 5.2-fold higher: 8760 nM for the first, 1690 nM for the second. The second is the more potent here.

Compared with `CCC1Cc2cc(OC)c(OC)cc2C(c2ccc(N3CCCCC3=O)cc2)=NN1C(=O)NC` (racemic) [Example 227, (±)-4-ethyl-7,8-dimethoxy-N-methyl-1-[4-(2-oxopiperidin-1-yl)phenyl]-4,5-dihydro-3H-2,3-benzodiazepine-3-carboxamide], `CNC(=O)N1N=C(c2ccc(Cl)cc2)c2ccc(N3CCOCC3=O)cc2CC1C` (racemic) [Example 232, (±)-1-(4-chlorophenyl)-N,4-dimethyl-7-(3-oxomorpholin-4-yl)-4,5-dihydro-3H-2,3-benzodiazepine-3-carboxamide] is 2.2-fold lower in IC50: 6280 nM for the first, 2840 nM for the second.
